Reference: patent US10238619B1, “Composition and method of using the same” (priority 2017, dated 2019)

Tests used:
[1] = tested on: persistent (biofilm) form of Borrelia garinii; experiment: effect on biofilm-like colonies, crystal violet staining; format: cell-based, Borrelia garinii CIP103362; conditions: for efficacy against biofilm compared with combinations (Mix 1 and Mix 2): individual ingredient 0.075 mg/ml; for susceptibility of biofilm: 0.3 mg/ml, 72 hours
Experimental: (§1) Two Borrelia species, namely, Borrelia burgdorferi and Borrelia garinii were tested in this study. Low passage isolates of the B31 strain of B. burgdorferi and CIP103362 strain of B. garinii were obtained from the American Type Culture Collection (Manassas, Va.). The stocks of both species were cultured in commonly used conditions, i.e. medium such as Barbour-Stoner-Kelly H (BSK-H) supplemented with 6% rabbit serum (Sigma, St Louis, Mo.) without antibiotics at 33° C. with 5% CO2, in sterile screw-cap 15 mL polypropylene tubes with or without gentile shaking depends on type of experiment. B31 strain is an isolate from Ixodes dammini whereas CIP103362 strain is an isolate from Ixodes ricinus. Both strains are well known human pathogenic factors of Lyme disease. So far, Borrelia burgdorferi has been found in ticks from North America and Eurasia, while Borrelia garinii only in ticks in Eurasia.
(§2) The strains of B. burgdorferi and B. garinii were prepared for testing as described in the art (Sapi et al., 2011). Briefly, the strains were activated from original cryobank vials and inoculated into 10 mL BSK-H compete medium, and maintained at 33° C. For generation of homogeneous cultures of B. burgdorferi or B. garinii, bacterial cells were inoculated and maintained in a shaking incubator at 33° C. and 250 rpm, where there is no biofilm formation (Sapi et al., 2011; supported by own observation). For generation of biofilm-like colonies of B. burgdorferi or B. garinii, bacterial cells were inoculated in four-well chambers (BD Biosciences, Sparks, Md.) coated with rat-tail collagen type I and incubated for 1 week without shaking.
(§3) Evaluation of test compounds/mixtures on bacterial biofilm. Qualitative effect of the individual test compounds and their mixtures against biofilm-like colonies of B. burgdorferi and B. garinii was evaluated using commonly used and well accepted crystal violet (CV) staining method, according to protocol provided by Sapi et al. Briefly, 1×10^7 bacterial cells/mL from homogeneous cultures of spirochetes were grown on extracellular matrix proteins (i.e., collagen type I) coated four-well chambers and incubated for 1 week.
(§4) After the 1 week of incubation, biofilm-like colonies were treated with various compounds/mixtures. Control wells were treated with ethanol (i.e., 0.075-0.3 mg/ml) alone. For doxycycline, as a positive control, the final used concentration was 0.03% (v/v). The chambers were then incubated at 33° C. for 72 hours. The whole experiment was repeated three times for each strain and each concentration. Next, all wells were fixed with 500 μL of cold methanol-formalin (1:1) for 30 minutes and stained with 1 mL of crystal violet (0.1%) for 10 minutes. The biofilm-like colonies were carefully washed three times with 1×PBS and 1 mL of methanol was added to each well to extract a dye, which was measured at 595 nm wavelength.

[2] = tested on: persistent (biofilm) form of Borrelia burgdorferi; experiment: as above; format: cell-based, Borrelia burgdorferi B31; conditions: for efficacy against biofilm compared with combinations (Mix 1 and Mix 2): individual ingredient 0.075 mg/ml; for susceptibility of biofilm: 0.3 mg/ml, 72 hours
Experimental: as §1, §2, §3, §4

[3] = tested on: active (spirochete) form of Borrelia burgdorferi; experiment: bacteriostatic/bactericidal effect on spirochetes, LIVE/DEAD BacLight (SYTO9/IP) fluorescence; format: cell-based, Borrelia burgdorferi B31; conditions: individual compound 0.3 mg/ml
Experimental: as §1, with “So far, Borrelia burgdorferi has been found in ticks from North America and Eurasia, while Borrelia garinii only in ticks in Eurasia.” left out
(§5) Evaluation of bacteriostatic and bactericidal effect of individual test compounds and their mixtures on test microorganisms. To determine what compound and/or mixture will have the bacteriostatic and/or bactericidal effect a fluorescence method was used according to Sapi et al. Briefly, 5×10^6 bacterial cells/mL of the homogenous bacterial suspension was inoculated into each sterile 1.8 mL test tightly caps screwed tubes containing 1 mL BSK-H medium, supplemented with the test compound/mixture of interest. […] The tubes were then incubated at 33° C. and viability was monitored at regular intervals for up to 72 hours. […]

[4] = tested on: active (spirochete) form of Borrelia garinii; experiment: as above; format: cell-based, Borrelia garinii CIP103362; conditions: individual compound 0.3 mg/ml
Experimental: as §1, with “So far, Borrelia burgdorferi has been found in ticks from North America and Eurasia, while Borrelia garinii only in ticks in Eurasia.” left out
as §5

SMILES: C=C(C)[C@@H]1CC=C(C)C(=O)C1 [R-carvone]
- efficacy against biofilm compared with combinations (Mix 1 and Mix 2) [1]: lower efficacy against biofilm than their combinations
- efficacy against biofilm compared with combinations (Mix 1 and Mix 2) [2]: lower efficacy against biofilm than their combinations

SMILES: CC(C)=CCCC(C)=CC=O [citral]
- susceptibility of biofilm [1]: susceptible
- efficacy against biofilm compared with combinations (Mix 1 and Mix 2) [1]: lower efficacy against biofilm than their combinations
- susceptibility of biofilm [2]: susceptible
- efficacy against biofilm compared with combinations (Mix 1 and Mix 2) [2]: lower efficacy against biofilm than their combinations

SMILES: C=CCc1ccc(O)c(OC)c1 [eugenol]
- bactericidal effect ([3]; after 6 hours of incubation): 50%
- bactericidal effect ([3]; after 24 hours of incubation): 100%
- susceptibility of biofilm [1]: susceptible
- efficacy against biofilm compared with combinations (Mix 1 and Mix 2) [1]: lower efficacy against biofilm than their combinations
- susceptibility of biofilm [2]: susceptible
- efficacy against biofilm compared with combinations (Mix 1 and Mix 2) [2]: lower efficacy against biofilm than their combinations
- bactericidal effect ([4]; after 6 hours of incubation): 50%
- bactericidal effect ([4]; after 24 hours of incubation): 100%

SMILES: CCCCC/C=C\C/C=C\CCCCCCCC(=O)O [linoleic acid]
- efficacy against biofilm compared with combinations (Mix 1 and Mix 2) [1]: lower efficacy against biofilm than their combinations
- efficacy against biofilm compared with combinations (Mix 1 and Mix 2) [2]: lower efficacy against biofilm than their combinations
